Experimental data reported in US8637665B2, “Pyrrolo[2,L-C][L,4]benzodiazepine-benzothiazole or benzoxazole conjugates linked through piperazine moiety and process for the preparation thereof” (priority 2010, dated 2014).

Assays:
[1] = tested on: duplex-form calf thymus DNA (CT-DNA); assay: Thermal denaturation studies with calf thymus DNA (DNA binding affinity); settings: [PBD]:[DNA] 1:5, CT-DNA 100 μM, ligand 20 μM, pH 7.00
Procedure, shortened: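 CT-DNA (100 μm in phosphate) with PBD (20 μm; 1:5 PBD/DNA molar ratio) in 10 mM sodium phosphate, 1 mM Na2EDTA, pH 7.00, incubated at 37° C for 0 and 18 h. A260 monitored while heating at 1° C min^−1 over 40-110° C; Tm from d(A260)/dT maxima, ΔTm versus drug-free DNA.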

[2] = tested on: KB (oral cancer) cell line; assay: In vitro anticancer activity, SRB assay, KB; assay type: cell-based, human; settings: Homo sapiens, 48 h
Procedure, shortened: (§1)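 Cells are exposed to compound continuously for 48 h across at least five 10-fold dilutions, then stained with sulforhodamine B to estimate growth. GI50 and LC50 come from the dose-response curves.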

[3] = tested on: PC-3 (prostate cancer) xenografts; assay: In vivo efficacy study on xenograft PC3; settings: PC-3 xenograft, scid male mice; compared with positive control adriamycin
Text: (§2) References may be made to patent “WO/2008/099416” wherein Benzothiazole or benzoxazole linked Pyrrolo[2,1-c][1,4] benzodiazepine hybrid as anticancer agent has been reported. References may be made to patent “U.S. Pat. No. 6,979,684” wherein Pyrrolo[2,1-c][1,4] benzodiazepine and naphthalimide are linked through piperazine moiety. The linking of pharmacophore like napthalimide and piperazine to pyrroloberizodiazepine can not be considered similar to a pharmacophore like benzothiazole as each pharmacophore is known for certain biological property. In the present investigation the benzothiaole and piperazine subunits are considered to be a different heterocyclic moieties compared to the earlier reported pharmacophores like napthalimide. Therefore, this structural variation of benzothiazole with piperazine moiety has been utilized for DNA binding aspect. Keeping this in mind, these new conjugates have been designed and synthesized to further improve the anticancer activity including the DNA binding affinity. The anticancer activity may not depend on the DNA binding activity. […] Moreover, one of the potent conjugate 9f (IICT-302) of this series has been evaluated for its in vivo efficacy studies (in scid male mice) against MCF-7 (breast cancer) and PC-3 (prostate cancer) xenografts by using adriamycin as a positive control.
FIG. 3 represents in vivo efficacy study of compound 9f on xenograft PC3.
(§3) The structural variation of benzothiazole/benzoxazole with piperazine moiety has been utilized for DNA binding aspect. Moreover, one of the potent conjugate 9f (IICT-302) of this series has been evaluate for its in vivo efficacy studies against MCF-7 (breast cancer) and PC-3 (prostate cancer) by using Adriamycin as positive control.

[4] = tested on: MCF 7 (breast cancer) cell line; assay: cells; assay type: cell-based; settings: Homo sapiens, MCF7, 48 h
Procedure, shortened: (§4)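 Cell lines exposed continuously to compound for 48 h at no fewer than five concentrations in 10-fold dilutions. Growth estimated by sulforhodamine B protein staining relative to untreated controls; GI50 and LC50 (−50% growth) calculated from dose-response curves.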

[5] = tested on: A 2780 (ovary cancer) cell line; assay: cells; assay type: cell-based; settings: Homo sapiens, A2780, 48 h
Procedure, shortened: as §4

[6] = tested on: SiHa (cervix cancer) cell line; assay: cells; assay type: cell-based; settings: Homo sapiens, SiHa, 48 h
Procedure, shortened: as §4

[7] = tested on: PC 3 (prostate cancer) cell line; assay: cells; assay type: cell-based; settings: Homo sapiens, 48 h
Procedure, shortened: as §4

[8] = tested on: HOP 62 (lung cancer) cell line; assay: cells; assay type: cell-based; settings: Homo sapiens, HOP-62, 48 h
Procedure, shortened: as §1

[9] = tested on: Colo 205 (colon cancer) cell line; assay: cells; assay type: cell-based; settings: Homo sapiens, COLO 205, 48 h
Procedure, shortened: as §4

[10] = tested on: A 549 (lung cancer) cell line; assay: cells; assay type: cell-based; settings: Homo sapiens, A549, 48 h
Procedure, shortened: as §4

[11] = tested on: eight tumour cells lines derived from seven cancer types; assay: In vitro anticancer activity, SRB assay, panel of eight cell lines; assay type: cell-based; settings: Homo sapiens, range over the eight cell lines per compound; read-out: GI50 range against cancer cell lines
Description: Anticancer activity: In vitro biological activity studies were carried out at the Advance Center for Treatment Research & Education in Cancer (ACTREC), Navi Mumbai.
The compounds were evaluated for in vitro anticancer activity against eight tumour cells lines derived from seven cancer types (non-small-cell lung, colon, oral, cervix, ovarian, prostate, and breast cancer) as shown in Table 2. For each compound, dose response curves for each cell line were measured at a minimum of five concentrations at 10 fold dilutions. A protocol of 48 h continuous drug exposure was used and a sulforhodamine B (SRB) protein assay was used to estimate cell viability or growth. The concentration causing 50% cell growth inhibition (GI50) and 50% cell death (LC50, −50% growth) compared with the control was calculated. Compounds 9a-9l have been evaluated for their in vitro cytotoxicity in eight cell lines from seven human cancer types of lung (Hop-62, A-549) colon (COLO-205) cervix (Si—Ha), ovary (A-2780), prostate (PC3) breast (MCF7), oral (KB). The results are expressed as percent of cell growth determined relative to that of untreated control cells (Table-8 and table-9).

[12] = tested on: MCF-7 (breast cancer) xenografts; assay: In vivo efficacy study on xenograft MCF-7; settings: MCF-7 xenograft, scid male mice; compared with positive control adriamycin
Text: as §2
FIG. 2 represents in vivo efficacy study of compound 9f on xenograft MCF-7.
as §3

## COc1cc(-c2nc3ccccc3s2)ccc1OCCCCN1CCN(CCCCOc2cc3c(cc2OC)C(=O)N2CCC[C@H]2C=N3)CC1 [Compound 9f, 7-Methoxy-8-[4-(4-{4-[4(1,3-benzothiazol-2-yl)-2-methoxyphenoxy]butyl}piperazin-1-yl)butyl]oxy-(11aS)-1,2,3,11a-tetrahydro-5H-pyrrolo[2,1-c][1,4]benzodiazepin-5-one]
[1]; 0 h
  ΔTm after incubation at 37° C. for 0 h: 15.5 °C
[1]; 18 h
  ΔTm after incubation at 37° C. for 18 h: 15.9 °C
[2]; read-out: GI50 KB, 48 h drug exposure, SRB, mean of three determinations
  GI50: < 10 nM
[2]; read-out: LC50 KB, 50% cell death, 48 h drug exposure, SRB
  CC50: 180 nM
[3]
  RTV in in vivo efficacy study: good RTV
  survival data in in vivo efficacy study: good survival data
  toxicity in in vivo efficacy study: less toxicity
[4]; read-out: GI50 MCF 7
  GI50: < 10 nM
[4]; read-out: LC50 MCF 7, 50% cell death, 48 h drug exposure, SRB
  LC50 (concentration causing 50% cell death): < 10 nM
[5]; read-out: GI50 A 2780, 48 h drug exposure, SRB, mean of three determinations
  GI50: < 10 nM
[5]; read-out: LC50 A 2780, 50% cell death, 48 h drug exposure, SRB
  CC50: 89 nM
[6]; read-out: GI50 SiHa, 48 h drug exposure, SRB, mean of three determinations
  GI50: < 10 nM
[6]; read-out: LC50 SiHa, 50% cell death, 48 h drug exposure, SRB
  LC50 (concentration causing 50% cell death): 2500 nM
[7]; read-out: GI50 PC 3
  GI50: < 10 nM
[7]; read-out: LC50 Pc 3, 50% cell death, 48 h drug exposure, SRB
  CC50: 2400 nM
[8]; read-out: GI50 HOP 62, 48 h drug exposure, SRB, mean of three determinations
  GI50: < 10 nM
[8]; read-out: LC50 HOP 62, 50% cell death, 48 h drug exposure, SRB
  LC50: 2400 nM
[9]; read-out: GI50 Colo 205, 48 h drug exposure, SRB, mean of three determinations
  GI50: < 10 nM
[9]; read-out: LC50 Colo 205
  CC50: > 100000 nM
[10]; read-out: GI50 A 549, 48 h drug exposure, SRB, mean of three determinations
  GI50: < 10 nM
[10]; read-out: LC50 A 549, 50% cell death, 48 h drug exposure, SRB
  CC50: > 100000 nM
[11]
  GI50: < 10 nM
[12]
  RTV in in vivo efficacy study: good RTV
  survival data in in vivo efficacy study: good survival data
  toxicity in in vivo efficacy study: less toxicity
